According to patent US8969380B2, “Secondary 8-hydroxyquinoline-7-carboxamide derivatives for use as antifungal agents” (Polichem SA, priority 2009, dated 2015):
Values after ≈ are worked out from the molar mass of the structure shown.

Assays:
[1] = tested on: Trichophyton Rubrum (ATCC 28188); test: Broth micro-dilution susceptibility test (MIC); format: cell-based; conditions: ATCC28188, 120 h, geometric mean of two single experiments, five days at 35° C., read-out: MIC Trycophyton Rubrum ATCC 28188
Protocol: (§1) Trichophyton Rubrum (ATCC 28188, PBI International); Trichophyton Mentagrophytes (ATCC 9533, PBI International); Aspergillus Niger (ATCC 16404, PBI International); Scopulariopsis Brevicaulis (ATCC 36840, DSMZ); Candida Albicans (ATCC 90028, PBI International); Candida Glabrata (ATCC 90030, DSMZ).
(§2) Strains were prepared from freeze-dried ampoules or freeze-dried pellets. An isolation of the suspensions was made on Potato Dextrose Agar (PDA) to test the strains purity. A strains' massive growth was then made streaking microbial suspensions on PDA plates.
(§3) Incubation was at 30° C. for 48-72 Hours (Candida yeasts) and for 7-10 days (filamentous fungi).
(§4) The yeasts' colonies and the filamentous fungi's conidia were harvested with 3-5 mL of RPMI 1640+50% glycerol and the aliquots frozen at −80° C.
(§5) Compounds' minimal inhibition concentration (MIC) was determined through broth micro-dilution susceptibility test using a method developed in agreement with the National Committee for Clinical Laboratory Standards (NCCLS) (National Committee for Clinical Laboratory Standards. Reference Method for Broth Dilution Antifungal Susceptibility Testing of Yeasts; Approved standard-Second Edition M27-A2. 2002; Vol. 22, No. 15) (National Committee for Clinical Laboratory Standards. Reference Method for Broth Dilution Antifungal Susceptibility Testing of Filamentous Fungi; Approved standard M38-A. 2002; Vol. 22, No. 16).
(§6) Assays were carried out in RPMI 1640 with L-glutamine medium buffered to pH 7 with 0.165M 3-(N-morpholino)propanesulfonic acid (MOPS) and 10M NaOH and supplemented with 18 g glucose/liter. The tests were performed using 96 well sterile plates (inoculum size of 1×10^5 CFU/mL). Compounds stock solutions were prepared at 12.8 mg/mL in 100% DMSO. A series of twofold dilutions were prepared in plate using RPMI 1640. Final concentrations ranged from 0.125 to 128 μg/mL at 1% DMSO.

[2] = tested on: Scopulariopsis Brevicaulis (ATCC 36840); test: Broth micro-dilution susceptibility test (MIC); format: cell-based; conditions: ATCC36840, 120 h, geometric mean of two single experiments, five days at 35° C.
Protocol: as §1, §2, §3, §4, §5, §6

[3] = tested on: Trichophyton Mentagrophytes (ATCC 9533); test: Broth micro-dilution susceptibility test (MIC); format: cell-based; conditions: ATCC9533, 120 h, geometric mean of two single experiments, five days at 35° C., read-out: MIC Tricophyton Mentagrophytes ATCC 9533
Protocol: as §1, §2, §3, §4, §5, §6

[4] = tested on: Aspergillus Niger (ATCC 16404); test: Broth micro-dilution susceptibility test (MIC); format: cell-based; conditions: ATCC16404, 120 h, geometric mean of two single experiments, five days at 35° C.
Protocol: as §1, §2, §3, §4, §5, §6

[5] = tested on: Candida Albicans (ATCC 90028); test: Broth micro-dilution susceptibility test (MIC); format: cell-based; conditions: ATCC90028, geometric mean of two single experiments, 48 h at 35° C.
Protocol: as §1, §2, §3, §4, §5, §6

[6] = tested on: Candida Glabrata (ATCC 90030); test: Broth micro-dilution susceptibility test (MIC); format: cell-based; conditions: Nakaseomyces glabratus, ATCC90030; geometric mean of two single experiments; 48 h at 35° C.
Protocol: as §1, §2, §3, §4, §5, §6

[7] = tested on: 6 strains tested, including yeasts, dermatophytes and molds; test: Spectrum of antifungal activity over the 6 strains tested; format: cell-based; conditions: 6 strains: yeasts
Protocol: as §1, §5, §6

[8] = tested on: Candida Glabrata (ATCC 90030); test: Assessment of the mechanism of action: antifungal activity with or without 100 μM Fe3+; format: cell-based; conditions: 100 μM FeCl3 in the test medium, OD at 540 nm
Protocol: To verify if the compounds mechanism of action is the chelation of iron ions, the MIC determination with Candida glabrata (ATCC 90030) strain was performed by the addition of excessive iron ions (100 μM FeCl3) in the test medium. The viability of cells exposed to drugs, with or without the metal ion Fe^3+, was evaluated by the OD measure at 540 nm.
The potency of compounds described in Example 3, 4, 11 12, E8 and NiK-29298 were evaluated on Candida glabrata in presence and in absence of 100 μM (100 micromoles) Fe^3+.
In all figures, the lines and dots represent the percent inhibition of the fungal growth (in ordinate) by adding different concentrations of antifungal agents (in abscissa). Blue lines and dots are the experiments performed without iron supplementation, while red lines and dots represent the results of the experiments performed in presence of 100 μM Fe^3+. […] Conversely, Fe^3+ has no effect on amphotericin, an antifungal agent known in the art to have a mechanism of action different from that of ciclopirox.

invasive aspergillosis = conditions: daily administered at 10 mg/kg; cited from earlier work

SMILES | MIC [1] | MIC [2] | MIC [3] | MIC [4] | MIC [5] | MIC [6] | Spectrum of antifungal activity [7] | Effect of Fe3+ on the antifungal activity (percent inhibition of fungal growth) [8] | rates of nephrotoxicity (invasive aspergillosis)
O=C(NCc1cccs1)c1ccc2cccnc2c1O [Example 1, 8-Hydroxy-N-(thiophen-2-ylmethyl)quinoline-7-carboxamide] | 0.5 µg/mL (≈ 1.76 µM) | 0.25 µg/mL (≈ 0.879 µM) | 0.5 µg/mL (≈ 1.76 µM) | 0.25 µg/mL (≈ 0.879 µM) | 1 µg/mL (≈ 3.52 µM) | 1 µg/mL (≈ 3.52 µM) | – | – | –
O=C(NCC1CCCCC1)c1ccc2cccnc2c1O [Example 2, 8-Hydroxy-N-(cyclohexylmethyl)quinoline-7-carboxamide] | 1 µg/mL (≈ 3.52 µM) | 2 µg/mL (≈ 7.03 µM) | 0.71 µg/mL (≈ 2.5 µM) | 0.35 µg/mL (≈ 1.23 µM) | 1.41 µg/mL (≈ 4.96 µM) | 1.41 µg/mL (≈ 4.96 µM) | – | – | –
O=C(NCc1ccccc1)c1ccc2cccnc2c1O [Example 3, 8-Hydroxy-N-benzyl-quinoline-7-carboxamide] | 0.35 µg/mL (≈ 1.26 µM) | 0.35 µg/mL (≈ 1.26 µM) | 0.18 µg/mL (≈ 0.647 µM) | 0.18 µg/mL (≈ 0.647 µM) | 1 µg/mL (≈ 3.59 µM) | 1 µg/mL (≈ 3.59 µM) | – | – | –
O=C(NCc1ccc(Cl)cc1)c1ccc2cccnc2c1O [Example 4, 8-Hydroxy-N-(4-chlorobenzyl)quinoline-7-carboxamide] | 0.71 µg/mL (≈ 2.27 µM) | 0.71 µg/mL (≈ 2.27 µM) | 0.5 µg/mL (≈ 1.6 µM) | 0.35 µg/mL (≈ 1.12 µM) | 2 µg/mL (≈ 6.39 µM) | 1 µg/mL (≈ 3.2 µM) | – | – | –
COc1ccc(NC(=O)c2ccc3cccnc3c2O)cc1 [Example 5, 8-Hydroxy-N-(4-methoxyphenyl)quinoline-7-carboxamide] | 0.35 µg/mL (≈ 1.19 µM) | 0.71 µg/mL (≈ 2.41 µM) | 0.5 µg/mL (≈ 1.7 µM) | 0.71 µg/mL (≈ 2.41 µM) | 0.5 µg/mL (≈ 1.7 µM) | 0.71 µg/mL (≈ 2.41 µM) | – | – | –
O=C(NCc1ccc(C(F)(F)F)cc1)c1ccc2cccnc2c1O [Example 6, 8-Hydroxy-N-(4-(trifluoromethyl)benzyl)quinoline-7-carboxamide] | 1.41 µg/mL (≈ 4.07 µM) | 1.41 µg/mL (≈ 4.07 µM) | 1 µg/mL (≈ 2.89 µM) | 0.5 µg/mL (≈ 1.44 µM) | 1.41 µg/mL (≈ 4.07 µM) | 1.41 µg/mL (≈ 4.07 µM) | – | – | –
O=C(Nc1ccccc1)c1ccc2cccnc2c1O [Example 7, 8-Hydroxy-N-phenyl-quinoline-7-carboxamide] | 0.5 µg/mL (≈ 1.89 µM) | 2 µg/mL (≈ 7.57 µM) | 0.71 µg/mL (≈ 2.69 µM) | 0.5 µg/mL (≈ 1.89 µM) | 0.5 µg/mL (≈ 1.89 µM) | 1 µg/mL (≈ 3.78 µM) | – | – | –
O=C(NCc1ccccc1O)c1ccc2cccnc2c1O [Example 8, 8-Hydroxy-N-(2-hydroxybenzyl)quinoline-7-carboxamide] | 0.71 µg/mL (≈ 2.41 µM) | 1 µg/mL (≈ 3.4 µM) | 0.5 µg/mL (≈ 1.7 µM) | 0.25 µg/mL (≈ 0.849 µM) | 2 µg/mL (≈ 6.8 µM) | 2 µg/mL (≈ 6.8 µM) | – | – | –
O=C(NCc1ccco1)c1ccc2cccnc2c1O [Example 9, 8-Hydroxy-N-(furan-2-ylmethyl)quinoline-7-carboxamide] | 0.71 µg/mL (≈ 2.65 µM) | 0.71 µg/mL (≈ 2.65 µM) | 1 µg/mL (≈ 3.73 µM) | 1 µg/mL (≈ 3.73 µM) | 0.71 µg/mL (≈ 2.65 µM) | 0.71 µg/mL (≈ 2.65 µM) | – | – | –
O=C(NCc1cccnc1)c1ccc2cccnc2c1O [Example 10, 8-Hydroxy-N-(pyridin-3-ylmethyl)quinoline-7-carboxamide] | 2 µg/mL (≈ 7.16 µM) | 1 µg/mL (≈ 3.58 µM) | 2 µg/mL (≈ 7.16 µM) | 1 µg/mL (≈ 3.58 µM) | 4 µg/mL (≈ 14.3 µM) | 11.3 µg/mL (≈ 40.5 µM) | – | – | –
COc1ccc(CNC(=O)c2ccc3cccnc3c2O)cc1 [Example 11, 8-Hydroxy-N-(4-methoxybenzyl)quinoline-7-carboxamide] | 1 µg/mL (≈ 3.24 µM) | 1 µg/mL (≈ 3.24 µM) | 1 µg/mL (≈ 3.24 µM) | 1 µg/mL (≈ 3.24 µM) | 2 µg/mL (≈ 6.49 µM) | – | – | – | –
O=C(NCc1ccc(OCc2ccccc2)cc1)c1ccc2ncccc2c1 [Example E8] | – | – | – | – | – | – | active only on yeasts | not inhibited | –
O=C(NCc1ccccc1)c1ccc2ncccc2c1 [NiK-29298] | – | – | – | – | – | – | active only on yeasts | not inhibited | –
C[C@@H]1[C@H](O)[C@@H](C)/C=C/C=C/C=C/C=C/C=C/C=C/C=C/[C@H](O[C@@H]2O[C@H](C)[C@@H](O)[C@H](N)[C@@H]2O)C[C@@H]2O[C@](O)(C[C@@H](O)C[C@@H](O)[C@H](O)CC[C@@H](O)C[C@@H](O)CC(=O)O[C@H]1C)C[C@H](O)[C@H]2C(=O)O [amphotericin, Amphotericin B] | – | – | – | – | – | – | – | no effect | 31%
Cc1cc(C2CCCCC2)n(O)c(=O)c1 [ciclopirox] | – | – | – | – | – | – | – | completely inhibited | –
